Measured values from patent publication US9333208B2, “HCN inhibitors affecting ganglion cell function and visual function” (Allergan, Inc., priority 2013, dated 2016).

What was measured:
retinal ganglion cells = assay: Retinal ganglion cell input resistance measurement, voltage clamp; type: cell-based, Brown Norway rats; details: different concentrations; clamped at -60 mV, stepped to -55 mV; FIG. 12
HCN channel current (Ih) = HCN channel current (Ih) measurement, voltage clamp of retinal ganglion cells; type: cell-based, Brown Norway rats; details: different concentrations; clamped at -60 mV, stepped to -80, -100 and -120 mV for 1 second; FIG. 11

Structure (SMILES): COc1cc2c(cc1OC)CC(=O)N(CCCN(C)C[C@H]1Cc3cc(OC)c(OC)cc31)CC2 [Ivabradine, 3-[3-({[(7S)-3,4-dimethoxybicyclo[4.2.0]octa-1,3,5-trien-7-yl]methyl}(methyl)amino)propyl]-7,8-dimethoxy-2,3,4,5-tetrahydro-1H-3-benzazepin-2-one]
- retinal ganglion cell input resistance (retinal ganglion cells): increased with every concentration of Ivabradine in a linear manner
- retinal ganglion cell HCN (Ih) mediated current (HCN channel current (Ih)): statistically significant decrease
